Where “and” joins values, the source holds several entries; their conditions need not be identical. Identical values can stand only once. Like-named read-outs stand apart in the source and are kept apart here.
Key:
LC3A [1] = target: T1, LC3A (Homo sapiens, UniProt Q9H492); assay: Isothermal titration calorimetry (ITC); format: binding; details: LC3A
LC3B = LC3B (Homo sapiens, UniProt Q9GZQ8); assay: FP assay with Cy5-labelled p62 LIR tracer (protein titration and tracer displacement); format: binding; details: for normalized FP signal, p62 LIR tracer displacement: LC3B; for compound titration LC3B (displacement curve, FP signal): two replicate columns per compound
GABARAPL2 = GABARAPL2 (Homo sapiens, UniProt P60520); details: GABARAPL2:ligand molar ratio 1:2
GABARAPL2, sequence (P60520 whole entry): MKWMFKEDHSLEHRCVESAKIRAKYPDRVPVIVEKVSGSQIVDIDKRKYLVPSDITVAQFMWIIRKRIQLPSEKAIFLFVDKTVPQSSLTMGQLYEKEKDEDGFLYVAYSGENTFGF

LC3A [2] = target: T1, LC3A; assay: FP assay with Cy5-labelled p62 LIR tracer (protein titration and tracer displacement); format: binding; details: LC3A
[3] = log10 concentration [M] -3.82391
[4] = log10 concentration [M] -4.1549
[5] = log10 concentration [M] -4.60206
[6] = log10 concentration [M] -5.30103
[7] = log10 concentration [M] -5.69897
[8] = log10 concentration [M] -6.22185
[9] = log10 concentration [M] -6.69897
[10] = log10 concentration [M] -7.30103
[11] = log10 concentration [M] -7.79588
[12] = log10 concentration [M] -8.08092

With Cc1ccc(C(=O)N(CCCN)[C@@H](c2nc3cc(Cl)ccc3c(=O)n2Cc2ccccc2)C(C)C)cc1 [compound 3, (R)-N-(3-aminopropyl)-N-(1-(3-benzyl-7-chloro-4-oxo-3,4-dihydroquinazolin-2-yl)−2-methylpropyl)−4-methylbenzamide] the “outcome of ITC titration” value (LC3A [1]) was “did not yield significant binding heats”, the “normalized FP signal, p62 LIR tracer displacement” value (shortened to “normalized FP signal”) (LC3B; [3]) was 79.4737 and 100.789 and the “normalized FP signal” value (LC3B; [4]) was 91.0526 and 93.9474. The “normalized FP signal” value (LC3B; [5]) was 98.6842 and 96.3158, the “normalized FP signal” value (LC3B; log10 concentration [M] -5) was 92.3684 and 100.263 and the “normalized FP signal” value (LC3B; [6]) was 95.7895 and 96.5789. The “normalized FP signal” value (LC3B; [7]) was 95.5263 and 96.0526, the “normalized FP signal” value (LC3B; [8]) was 92.1053 and 92.3684 and the “normalized FP signal” value (LC3B; [9]) was 97.6316 and 96.5789. For the same compound, the “normalized FP signal” value (LC3B; [10]) was 93.1579 and 99.7368, the “normalized FP signal” value (LC3B; [11]) was 100.263 and 96.8421 and the “normalized FP signal” value (LC3B; [12]) was 95.2632 and 96.3158. For the same compound, the “compound titration LC3B (displacement curve, FP signal)” value (“compound titration LC3B” below) (LC3B; [3]) was 79.4737 and 100.789, the “compound titration LC3B” value (LC3B; [4]) was 91.0526 and 93.9474 and the “compound titration LC3B” value (LC3B; [5]) was 98.6842 and 96.3158. For the same compound, the “compound titration LC3B” value (LC3B; log10 concentration [M] -5) was 92.3684 and 100.263, the “compound titration LC3B” value (LC3B; [6]) was 95.7895 and 96.5789 and the “compound titration LC3B” value (LC3B; [7]) was 95.5263 and 96.0526. The “compound titration LC3B” value (LC3B; [8]) was 92.1053 and 92.3684, the “compound titration LC3B” value (LC3B; [9]) was 97.6316 and 96.5789 and the “compound titration LC3B” value (LC3B; [10]) was 93.1579 and 99.7368. For the same compound, the “compound titration LC3B” value (LC3B; [11]) was 100.263 and 96.8421, the “compound titration LC3B” value (LC3B; [12]) was 95.2632 and 96.3158 and the CSP (GABARAPL2; residue A19) was 0.00171 ppm. The CSP (GABARAPL2; residue A23) was 0.00424 ppm, the CSP (GABARAPL2; residue A58) was 0.00148 ppm and the CSP (GABARAPL2; residue A75) was 0.002 ppm. It also gave a CSP (GABARAPL2; residue A108) of 0.000762 ppm, a CSP (GABARAPL2; residue C15) of 0.004 ppm and a CSP (GABARAPL2; residue D8) of 0.00263 ppm. The CSP (GABARAPL2; residue D27) was 0.00158 ppm, the CSP (GABARAPL2; residue D43) was 0.00251 ppm and the CSP (GABARAPL2; residue D45) was 0.003 ppm. For the same compound, the CSP (GABARAPL2; residue D54) was 0.000849 ppm, the CSP (GABARAPL2; residue D81) was 0.00228 ppm and the CSP (GABARAPL2; residue D100) was 0.00228 ppm. For the same compound, the CSP (GABARAPL2; residue D102) was 0.00165 ppm, the CSP (GABARAPL2; residue E7) was 0.00472 ppm and the CSP (GABARAPL2; residue E12) was 0.00142 ppm. It also gave a CSP (GABARAPL2; residue E17) of 0.000762 ppm, a CSP (GABARAPL2; residue E34) of 0.009 ppm and a CSP (GABARAPL2; residue E73) of 0.000762 ppm. The CSP (GABARAPL2; residue E96) was 0.000707 ppm, the CSP (GABARAPL2; residue E98) was 0.00122 ppm and the CSP (GABARAPL2; residue E101) was 0.002 ppm. For the same compound, the CSP (GABARAPL2; residue E112) was 0.0017 ppm, the CSP (GABARAPL2; residue F60) was 0.005 ppm and the CSP (GABARAPL2; residue F77) was 0.000283 ppm. For the same compound, the CSP (GABARAPL2; residue F79) was 0.002 ppm, the CSP (GABARAPL2; residue F104) was 0.0075 ppm and the CSP (GABARAPL2; residue F115) was 0.005 ppm. For the same compound, the CSP (GABARAPL2; residue G38) was 0.005 ppm, the CSP (GABARAPL2; residue G103) was 0.00213 ppm and the CSP (GABARAPL2; residue G111) was 0.00847 ppm. For the same compound, the CSP (GABARAPL2; residue G116) was 0.0024 ppm, the CSP (GABARAPL2; residue H9) was 0.010 ppm and the CSP (GABARAPL2; residue H13) was 0.0011 ppm. It also gave a CSP (GABARAPL2; residue I21) of 0.00184 ppm, a CSP (GABARAPL2; residue I32) of 0.00354 ppm and a CSP (GABARAPL2; residue I41) of 0.011 ppm. It also gave a CSP (GABARAPL2; residue I44) of 0.00216 ppm, a CSP (GABARAPL2; residue I55) of 0.000762 ppm and a CSP (GABARAPL2; residue I63) of 0.004 ppm. The CSP (GABARAPL2; residue I64) was 0.00283 ppm, the CSP (GABARAPL2; residue I68) was 0.008 ppm and the CSP (GABARAPL2; residue I76) was 0.000707 ppm. For the same compound, the CSP (GABARAPL2; residue K2) was 0.008 ppm, the CSP (GABARAPL2; residue K6) was 0.007 ppm and the CSP (GABARAPL2; residue K20) was 0.000707 ppm. The CSP (GABARAPL2; residue K24) was 0.001 ppm, the CSP (GABARAPL2; residue K35) was 0.004 ppm and the CSP (GABARAPL2; residue K46, estimated) was 0.010 ppm. It also gave a CSP (GABARAPL2; residue K48) of 0.022 ppm, a CSP (GABARAPL2; residue K66) of 0.00142 ppm and a CSP (GABARAPL2; residue K74) of 0.000906 ppm. The CSP (GABARAPL2; residue K97) was 0.00113 ppm, the CSP (GABARAPL2; residue K99) was 0.00144 ppm and the CSP (GABARAPL2; residue L11) was 0.000762 ppm. The CSP (GABARAPL2; residue L50) was 0.00216 ppm, the CSP (GABARAPL2; residue L70) was 0.0019 ppm and the CSP (GABARAPL2; residue L78) was 0.00212 ppm. It also gave a CSP (GABARAPL2; residue L105) of 0.00283 ppm, a CSP (GABARAPL2; residue M1) of 0.006 ppm and a CSP (GABARAPL2; residue M61) of 0.00221 ppm. It also gave a CSP (GABARAPL2; residue N113) of 0.000141 ppm, a CSP (GABARAPL2; residue P26, estimated) of 0.002 ppm and a CSP (GABARAPL2; residue P30, estimated) of 0.002 ppm. It also gave a CSP (GABARAPL2; residue P52, estimated) of 0.002 ppm, a CSP (GABARAPL2; residue P71, estimated) of 0.002 ppm and a CSP (GABARAPL2; residue Q40) of 0.00659 ppm. The CSP (GABARAPL2; residue Q59) was 0.000424 ppm, the CSP (GABARAPL2; residue Q69) was 0.0011 ppm and the CSP (GABARAPL2; residue R14) was 0.003 ppm. The CSP (GABARAPL2; residue R22) was 0.00649 ppm, the CSP (GABARAPL2; residue R28) was 0.00232 ppm and the CSP (GABARAPL2; residue R47, estimated) was 0.015 ppm. For the same compound, the CSP (GABARAPL2; residue R65) was 0.0022 ppm, the CSP (GABARAPL2; residue R67) was 0.003 ppm and the CSP (GABARAPL2; residue S10) was 0.008 ppm. For the same compound, the CSP (GABARAPL2; residue S18) was 0.00146 ppm, the CSP (GABARAPL2; residue S37) was 0.005 ppm and the CSP (GABARAPL2; residue S39) was 0.00232 ppm. The CSP (GABARAPL2; residue S53) was 0.002 ppm, the CSP (GABARAPL2; residue S72) was 0.00122 ppm and the CSP (GABARAPL2; residue S110) was 0.000825 ppm. For the same compound, the CSP (GABARAPL2; residue T56) was 0.00133 ppm, the CSP (GABARAPL2; residue T114) was 0.0017 ppm and the CSP (GABARAPL2; residue V16) was 0.000141 ppm. The CSP (GABARAPL2; residue V29) was 0.00214 ppm, the CSP (GABARAPL2; residue V31) was 0.00444 ppm and the CSP (GABARAPL2; residue V33) was 0.00281 ppm. It also gave a CSP (GABARAPL2; residue V36) of 0.00638 ppm, a CSP (GABARAPL2; residue V42) of 0.00652 ppm and a CSP (GABARAPL2; residue V51) of 0.00319 ppm. For the same compound, the CSP (GABARAPL2; residue V57) was 0.00127 ppm, the CSP (GABARAPL2; residue V80) was 0.00281 ppm and the CSP (GABARAPL2; residue V107) was 0.005 ppm. For the same compound, the CSP (GABARAPL2; residue W3) was 0.007 ppm, the CSP (GABARAPL2; residue W62) was 0.0057 ppm and the CSP (GABARAPL2; residue Y25) was 0.00742 ppm. It also gave a CSP (GABARAPL2; residue Y49) of 0.010 ppm, a CSP (GABARAPL2; residue Y106) of 0.00214 ppm and a CSP (GABARAPL2; residue Y109) of 0.00263 ppm. The “normalized FP signal” value (LC3A [2]; log10 concentration [M] -3.82391, listed as 8F20) was 97.3684 and 104.737, the “normalized FP signal” value (LC3A [2]; log10 concentration [M] -4.1549, listed as 8F20) was 102.105 and 103.947 and the “normalized FP signal” value (LC3A [2]; log10 concentration [M] -4.60206, listed as 8F20) was 101.053 and 106.053. The “normalized FP signal” value (LC3A [2]; log10 concentration [M] -5, listed as 8F20) was 99.7368 and 100.789, the “normalized FP signal” value (LC3A [2]; log10 concentration [M] -5.30103, listed as 8F20) was 102.105 and 98.4211 and the “normalized FP signal” value (LC3A [2]; log10 concentration [M] -5.69897, listed as 8F20) was 97.6316 and 96.0526. The “normalized FP signal” value (LC3A [2]; log10 concentration [M] -6.22185, listed as 8F20) was 102.632 and 94.2105, the “normalized FP signal” value (LC3A [2]; [9]) was 101.053 and the “normalized FP signal” value (LC3A [2]; log10 concentration [M] -6.69897, listed as 8F20) was 99.7368. For the same compound, the “normalized FP signal” value (LC3A [2]; log10 concentration [M] -7.30103, listed as 8F20) was 103.947 and 101.316, the “normalized FP signal” value (LC3A [2]; [11]) was 98.4211 and the “normalized FP signal” value (LC3A [2]; log10 concentration [M] -7.79588, listed as 8F20) was 93.9474. For the same compound, the “normalized FP signal” value (LC3A [2]; [12]) was 102.105 and the “normalized FP signal” value (LC3A [2]; log10 concentration [M] -8.08092, listed as 8F20) was 93.9474.
